Source: patent US5955440A, “Macrolide LHRH antagonists” (Abbott Laboratories, priority 1998, dated 1999)

Legend:
[1] = target: T1, LHRH rat pituitary receptor (Rattus norvegicus, UniProt P30969); assay: LHRH rat pituitary receptor binding (pKI); settings: negative logarithm of the equilibrium dissociation constants; for Ki: Table 1, read-out: receptor binding affinity (pKI) (converted)
T1 construct: from tissue; host or cells: rat pituitary
T1 sequence (P30969 1-327): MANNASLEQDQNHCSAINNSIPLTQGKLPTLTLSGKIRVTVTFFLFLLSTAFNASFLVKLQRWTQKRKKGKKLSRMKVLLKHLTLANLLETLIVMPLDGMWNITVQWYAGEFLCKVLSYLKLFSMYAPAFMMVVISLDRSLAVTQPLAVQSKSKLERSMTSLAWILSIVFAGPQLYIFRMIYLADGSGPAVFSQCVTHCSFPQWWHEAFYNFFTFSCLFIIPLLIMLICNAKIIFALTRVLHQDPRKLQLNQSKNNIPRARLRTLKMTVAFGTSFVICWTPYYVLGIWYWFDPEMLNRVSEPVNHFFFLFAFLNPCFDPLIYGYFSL
Method: (§1) Representative compounds of the present invention were evaluated in in vitro tests for LHRH rat pituitary receptor binding (pKI) and for LH inhibition from rat pituitary cells for antagonist potency (pA2). The tests employed the methods detailed in F. Haviv, et al. J. Med. Chem., 32: 2340-2344 (1989). The receptor binding affinity (pKI) is the negative logarithm of the equilibrium dissociation constants.

[2] = target: T2, rat pituitary cells (Rattus norvegicus, UniProt P30969); assay: LH inhibition from rat pituitary cells, antagonist potency (pA2); type: cell-based; settings: negative log of antagonist concentration shifting the leuprolide response curve to two-fold higher concentration, Table 2
T2 construct: endogenous in cells; host or cells: rat pituitary cells
T2 sequence (P30969 1-327): T1 sequence (P30969 1-327)
Method: as §1
The pA2 value is the negative logarithm of the concentration of antagonist which shifts the response curve produced by the agonist leuprolide to two-fold higher concentration. Leuprolide is the LHRH agonist having the structure pyro-Glu^1 -His^2 -Trp^3 -Ser^4 -Tyr^5 -D-Leu^6 -Leu^7 -Arg^8 -Pro^9 -NHEt and is disclosed and claimed in U.S. Pat. No. 4,005,063. Typically pA2 values of 7.0 or greater are indicative of good LHRH antagonist potency.

Structure (SMILES) | Ki [1] [nM] | Kb [2] [nM] | receptor binding affinity (pKI) ([1]; Table 1)
CC[C@H]1OC(=O)[C@H](C)[C@@H](O[C@H]2C[C@@](C)(OC)[C@@H](O)[C@H](C)O2)[C@H](C)[C@@H](O[C@@H]2O[C@H](C)C[C@H](N(C)C3CCCC3)[C@H]2O)[C@](C)(OC)C[C@@H](C)C(=O)[C@H](C)[C@H]2N(CCc3ccc(Cl)c(Cl)c3)C(=O)O[C@]12C [Example 1, 3'-N-Desmethyl-3'-N-cyclopentyl-11-deoxy-11-[carboxy-(3,4-dichlorophenethylamino)]-6-O-methyl-erythromycin A 11,12-(cyclic carbamate)] | 0.813 | 0.794 | 
CC[C@H]1OC(=O)[C@H](C)[C@@H](O[C@H]2C[C@@](C)(OC)[C@@H](O)[C@H](C)O2)[C@H](C)[C@@H](O[C@@H]2O[C@H](C)C[C@H](N(C)CCCc3cccnc3)[C@H]2O)[C@](C)(OC)C[C@@H](C)C(=O)[C@H](C)[C@H]2N(CCc3ccc(F)c(Cl)c3)C(=O)O[C@]12C [Example 80, 3'-N-Desmethyl-3'-N-[3-(3-pyridyl)propyl]-11-deoxy-11-[carboxy-(3-chloro-4-fluorophenethylamino)]-6-O-methyl-erythromycin A 11,12-(cyclic carbamate)] | 3.98 |  | 
CC[C@H]1OC(=O)[C@H](C)[C@@H](O[C@H]2C[C@@](C)(OC)[C@@H](O)[C@H](C)O2)[C@H](C)[C@@H](O[C@@H]2O[C@H](C)C[C@H](N(C)CCCc3ccncc3)[C@H]2O)[C@](C)(OC)C[C@@H](C)C(=O)[C@H](C)[C@H]2N(CCc3ccc(F)c(Cl)c3)C(=O)O[C@]12C [Example 81, 3'-N-Desmethyl-3'-N-[3-(4-pyridyl)propyl]-11-deoxy-11-[carboxy-(3-chloro-4-fluorophenethylamino)]-6-O-methyl-erythromycin A 11,12-(cyclic carbamate)] | 4.37 |  | 
CC[C@H]1OC(=O)[C@H](C)[C@@H](O[C@H]2C[C@@](C)(OC)[C@@H](O)[C@H](C)O2)[C@H](C)[C@@H](O[C@@H]2O[C@H](C)C[C@H](N(C)CCCc3ccccn3)[C@H]2O)[C@](C)(OC)C[C@@H](C)C(=O)[C@H](C)[C@H]2N(CCc3ccc(F)c(Cl)c3)C(=O)O[C@]12C [Example 82, 3'-N-Desmethyl-3'-N-[3-(2-pyridyl)propyl]-11-deoxy-11-[carboxy-(3-chloro-4-fluorophenethylamino)]-6-O-methyl-erythromycin A 11,12-(cyclic carbamate)] | 2.29 |  | 
CC[C@H]1OC(=O)[C@H](C)[C@@H](O[C@H]2C[C@@](C)(OC)[C@@H](O)[C@H](C)O2)[C@H](C)[C@@H](O[C@@H]2O[C@H](C)C[C@H](N(C)CCCCc3ccncc3)[C@H]2O)[C@](C)(OC)C[C@@H](C)C(=O)[C@H](C)[C@H]2N(CCc3ccc(F)c(Cl)c3)C(=O)O[C@]12C [Example 83, 3'-N-Desmethyl-3'-N-[4-(4-pyridyl)butyl]-11-deoxy-11-[carboxy-(3-chloro-4-fluorophenethylamino)]-6-O-methyl-erythromycin A 11,12-(cyclic carbamate)] |  |  | 8.46
CC[C@H]1OC(=O)[C@H](C)[C@@H](O[C@H]2C[C@@](C)(OC)[C@@H](O)[C@H](C)O2)[C@H](C)[C@@H](O[C@@H]2O[C@H](C)C[C@H](N(C)CCCCc3cccc(C)n3)[C@H]2O)[C@](C)(OC)C[C@@H](C)C(=O)[C@H](C)[C@H]2N(CCc3ccc(F)c(Cl)c3)C(=O)O[C@]12C [Example 84, 3'-N-Desmethyl-3'-N-[4-(6-methyl)-2-pyridyl]butyl-11-deoxy-11-[carboxy-(3-chloro-4-fluorophenethylamino)]-6-O-methyl-erythromycin A 11,12-(cyclic carbamate)] | 7.08 |  | 
CC[C@H]1OC(=O)[C@H](C)[C@@H](O[C@H]2C[C@@](C)(OC)[C@@H](O)[C@H](C)O2)[C@H](C)[C@@H](O[C@@H]2O[C@H](C)C[C@H](N(C)C(C)CCc3ccc(O)cc3)[C@H]2O)[C@](C)(OC)C[C@@H](C)C(=O)[C@H](C)[C@H]2N(CCc3ccc(Cl)c(Cl)c3)C(=O)O[C@]12C (stereo partly shown) [Example 85, 3'-N-Desmethyl-3'-N-(1-methyl)[3-(4-hydroxy)phenyl]propyl-11-deoxy-11-[carboxy-(3,4-dichlorophenethylamino)]-6-O-methyl-erythromycin A 11,12-(cyclic carbamate)] | 5.89 |  | 
CC[C@H]1OC(=O)[C@H](C)[C@@H](O[C@H]2C[C@@](C)(OC)[C@@H](O)[C@H](C)O2)[C@H](C)[C@@H](O[C@@H]2O[C@H](C)C[C@H](N(C)C(C)CCc3ccc(O)cc3)[C@H]2O)[C@](C)(OC)C[C@@H](C)C(=O)[C@H](C)[C@H]2N(CCc3ccc(F)c(Cl)c3)C(=O)O[C@]12C (stereo partly shown) [Example 86, 3'-N-Desmethyl-3'-N-(1-methyl)[3-(4-hydroxy)phenyl]propyl-11-deoxy-11-[carboxy-(3-chloro-4fluorophenethylamino)]-6-O-methyl-erythromycin A 11,12-(cyclic carbamate)] | 1.78 |  | 
CC[C@H]1OC(=O)[C@H](C)[C@@H](O[C@H]2C[C@@](C)(OC)[C@@H](O)[C@H](C)O2)[C@H](C)[C@@H](O[C@@H]2O[C@H](C)C[C@H](N(C)CCCc3cccc(C)n3)[C@H]2O)[C@](C)(OC)C[C@@H](C)C(=O)[C@H](C)[C@H]2N(CCc3ccc(F)c(Cl)c3)C(=O)O[C@]12C [Example 87, 3'-N-Desmethyl-3'-N-[3-(6-methyl-2-pyridyl)propyl]-11-deoxy-11-[carboxy-(3-chloro-4-fluorophenethylamino)]-6-O-methyl-erythromycin A 11,12-(cyclic carbamate)] | 2.24 |  | 
CC[C@H]1OC(=O)[C@H](C)[C@@H](O[C@H]2C[C@@](C)(OC)[C@@H](O)[C@H](C)O2)[C@H](C)[C@@H](O[C@@H]2O[C@H](C)C[C@H](N(C)CCCc3ccc(C)cn3)[C@H]2O)[C@](C)(OC)C[C@@H](C)C(=O)[C@H](C)[C@H]2N(CCc3ccc(F)c(Cl)c3)C(=O)O[C@]12C [Example 88, 3'-N-Desmethyl-3'-N-[3-(5-methyl-2-pyridyl)propyl]-11-deoxy-11[carboxy-(3-chloro-4-fluorophenethylamino)]-6-O-methyl-erythromycin A 11,12-(cyclic carbamate)] | 2.09 |  | 
CC[C@H]1OC(=O)[C@H](C)[C@@H](O[C@H]2C[C@@](C)(OC)[C@@H](O)[C@H](C)O2)[C@H](C)[C@@H](O[C@@H]2O[C@H](C)C[C@H](N(C)CCc3ccccn3)[C@H]2O)[C@](C)(OC)C[C@@H](C)C(=O)[C@H](C)[C@H]2N(CCc3ccc(Cl)c(Cl)c3)C(=O)O[C@]12C [Example 89, 3'-N-Desmethyl-3'-N-(2-pyridyl)ethyl-11-deoxy-11-[carboxy-(3,4-dichlorophenethylamino)]-6-O-methyl-erythromycin A 11,12-(cyclic carbamate)] | 4.17 |  | 
CC[C@H]1OC(=O)[C@H](C)[C@@H](O[C@H]2C[C@@](C)(OC)[C@@H](O)[C@H](C)O2)[C@H](C)[C@@H](O[C@@H]2O[C@H](C)C[C@H](N(C)CCc3ccccn3)[C@H]2O)[C@](C)(OC)C[C@@H](C)C(=O)[C@H](C)[C@H]2N(CCc3ccc(F)c(Cl)c3)C(=O)O[C@]12C [Example 90, 3'-N-Desmethyl-3'-N-(2-pyridyl)ethyl-11-deoxy-11-[carboxy-(3-chloro-4-fluorophenethylamino)]-6-O-methyl-erythromycin A 11,12-(cyclic carbamate)] | 4.07 |  | 
CC[C@H]1OC(=O)[C@H](C)[C@@H](O[C@H]2C[C@@](C)(OC)[C@@H](O)[C@H](C)O2)[C@H](C)[C@@H](O[C@@H]2O[C@H](C)C[C@H](N(C)Cc3ccc(O)cc3)[C@H]2O)[C@](C)(OC)C[C@@H](C)C(=O)[C@H](C)[C@H]2N(CCc3ccc(Cl)c(Cl)c3)C(=O)O[C@]12C [Example 91, 3'-N-Desmethyl-3'-N-(4-hydroxybenzyl)-11-deoxy-11-[carboxy-(3,4-dichlorophenethylamino)]-6-O-methyl-erythromycin A 11,12-(cyclic carbamate)] | 9.55 |  | 
CC[C@H]1OC(=O)[C@H](C)[C@@H](O[C@H]2C[C@@](C)(OC)[C@@H](O)[C@H](C)O2)[C@H](C)[C@@H](O[C@@H]2O[C@H](C)C[C@H](N(C)Cc3ccncc3)[C@H]2O)[C@](C)(OC)C[C@@H](C)C(=O)[C@H](C)[C@H]2N(CCc3ccc(Cl)c(Cl)c3)C(=O)O[C@]12C [Example 92, 3'-N-Desmethyl-3'-N-(4-pyridylmethyl)-11-deoxy-11-[carboxy-(3,4-dichlorophenethylamino)]-6-O-methyl-erythromycin A 11,12-(cyclic carbamate)] | 6.31 |  | 
CC[C@H]1OC(=O)[C@H](C)[C@@H](O[C@H]2C[C@@](C)(OC)[C@@H](O)[C@H](C)O2)[C@H](C)[C@@H](O[C@@H]2O[C@H](C)C[C@H](N(C)CCC(C)SC)[C@H]2O)[C@](C)(OC)C[C@@H](C)C(=O)[C@H](C)[C@H]2N(CCc3ccc(Cl)c(Cl)c3)C(=O)O[C@]12C (stereo partly shown) [Example 93, 3'-N-Desmethyl-3'-N-[(3-methylthio)butyl]-11-deoxy-11-[carboxy-(3,4-dichlorophenethylamino)]-6-O-methyl-erythromycin A 11,12-(cyclic carbamate)] | 5.01 |  | 
